Laboratory results published in article PMC11649115, “In vitro safety evaluation of dopamine D3R antagonist, R-VK4-116, as a potential medication for the treatment of opioid use disorder” (PLOS ONE, 2024).
Where two headings read alike, the source gives them in different places.

Legend:
CYP2B6 [1] = target: T1, CYP2B6 (Homo sapiens, UniProt P20813); test: CYP inhibition in human liver microsomes; settings: human, human liver microsomes, probe bupropion
T1 sequence (P20813 1-491): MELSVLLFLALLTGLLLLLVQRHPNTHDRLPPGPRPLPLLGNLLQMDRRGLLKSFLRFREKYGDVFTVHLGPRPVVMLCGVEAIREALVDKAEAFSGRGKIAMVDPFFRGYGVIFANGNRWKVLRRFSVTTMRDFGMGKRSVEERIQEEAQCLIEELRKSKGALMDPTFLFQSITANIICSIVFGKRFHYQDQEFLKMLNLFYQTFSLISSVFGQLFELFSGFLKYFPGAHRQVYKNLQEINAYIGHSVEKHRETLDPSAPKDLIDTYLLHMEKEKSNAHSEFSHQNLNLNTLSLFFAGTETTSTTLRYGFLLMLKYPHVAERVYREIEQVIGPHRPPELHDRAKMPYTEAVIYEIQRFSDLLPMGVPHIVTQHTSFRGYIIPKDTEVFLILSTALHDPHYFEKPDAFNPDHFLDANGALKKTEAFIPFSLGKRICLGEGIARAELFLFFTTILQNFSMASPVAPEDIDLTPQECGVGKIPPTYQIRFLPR

CYP2C9 = CYP2C9 (Homo sapiens, UniProt P11712); test: CYP inhibition in human liver microsomes; settings: human
Chain of CYP2C9 (P11712 whole entry): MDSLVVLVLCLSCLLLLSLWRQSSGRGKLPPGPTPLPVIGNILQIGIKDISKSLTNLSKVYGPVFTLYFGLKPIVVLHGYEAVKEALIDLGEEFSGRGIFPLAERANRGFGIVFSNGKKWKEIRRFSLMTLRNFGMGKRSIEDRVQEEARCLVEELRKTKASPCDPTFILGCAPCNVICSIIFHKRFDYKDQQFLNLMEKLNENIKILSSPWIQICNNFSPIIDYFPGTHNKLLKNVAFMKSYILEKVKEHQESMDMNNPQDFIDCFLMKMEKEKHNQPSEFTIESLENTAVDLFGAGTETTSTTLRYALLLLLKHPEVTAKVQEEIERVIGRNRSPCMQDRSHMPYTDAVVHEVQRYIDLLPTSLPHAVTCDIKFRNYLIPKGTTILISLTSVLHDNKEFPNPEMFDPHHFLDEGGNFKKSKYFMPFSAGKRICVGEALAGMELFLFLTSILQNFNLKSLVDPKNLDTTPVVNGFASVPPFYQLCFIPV

CYP2C19 = CYP2C19 (Homo sapiens, UniProt P33261); test: CYP inhibition in human liver microsomes; settings: human, human liver microsomes, probe mephenytoin
Chain of CYP2C19 (P33261 whole entry): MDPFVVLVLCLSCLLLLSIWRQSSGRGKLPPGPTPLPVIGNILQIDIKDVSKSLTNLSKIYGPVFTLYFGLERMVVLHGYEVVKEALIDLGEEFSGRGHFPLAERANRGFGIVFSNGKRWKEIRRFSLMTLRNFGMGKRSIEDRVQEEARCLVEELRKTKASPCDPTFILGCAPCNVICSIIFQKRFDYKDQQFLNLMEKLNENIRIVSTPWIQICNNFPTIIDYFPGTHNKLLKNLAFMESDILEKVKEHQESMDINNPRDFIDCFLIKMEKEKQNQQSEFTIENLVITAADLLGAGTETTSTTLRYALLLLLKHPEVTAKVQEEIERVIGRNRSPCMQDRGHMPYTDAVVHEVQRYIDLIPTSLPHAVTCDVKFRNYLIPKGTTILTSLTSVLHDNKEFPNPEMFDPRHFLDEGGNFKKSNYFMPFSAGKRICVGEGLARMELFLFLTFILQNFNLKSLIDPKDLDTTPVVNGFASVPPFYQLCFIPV

CYP2C8 = target: T2, CYP2C8 (Homo sapiens, UniProt P10632); test: CYP inhibition in human liver microsomes; settings: human, human liver microsomes, probe paclitaxel
T2 sequence (P10632 1-490): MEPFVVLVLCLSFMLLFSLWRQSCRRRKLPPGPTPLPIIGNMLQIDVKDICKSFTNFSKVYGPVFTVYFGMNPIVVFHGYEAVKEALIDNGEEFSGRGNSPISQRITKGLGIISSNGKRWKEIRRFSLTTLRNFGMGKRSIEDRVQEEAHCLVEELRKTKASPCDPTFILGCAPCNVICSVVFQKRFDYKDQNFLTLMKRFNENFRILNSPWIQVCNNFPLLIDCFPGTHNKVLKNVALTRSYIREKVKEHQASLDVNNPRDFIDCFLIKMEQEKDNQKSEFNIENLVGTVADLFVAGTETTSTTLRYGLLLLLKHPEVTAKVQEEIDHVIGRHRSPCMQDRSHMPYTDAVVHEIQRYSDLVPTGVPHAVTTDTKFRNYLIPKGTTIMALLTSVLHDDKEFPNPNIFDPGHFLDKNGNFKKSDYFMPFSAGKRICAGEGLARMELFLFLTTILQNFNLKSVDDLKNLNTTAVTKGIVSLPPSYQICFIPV

CYP3A4 = CYP3A4 (Homo sapiens, UniProt P08684); test: in vitro; settings: microsomes
Chain of CYP3A4 (P08684 2-503): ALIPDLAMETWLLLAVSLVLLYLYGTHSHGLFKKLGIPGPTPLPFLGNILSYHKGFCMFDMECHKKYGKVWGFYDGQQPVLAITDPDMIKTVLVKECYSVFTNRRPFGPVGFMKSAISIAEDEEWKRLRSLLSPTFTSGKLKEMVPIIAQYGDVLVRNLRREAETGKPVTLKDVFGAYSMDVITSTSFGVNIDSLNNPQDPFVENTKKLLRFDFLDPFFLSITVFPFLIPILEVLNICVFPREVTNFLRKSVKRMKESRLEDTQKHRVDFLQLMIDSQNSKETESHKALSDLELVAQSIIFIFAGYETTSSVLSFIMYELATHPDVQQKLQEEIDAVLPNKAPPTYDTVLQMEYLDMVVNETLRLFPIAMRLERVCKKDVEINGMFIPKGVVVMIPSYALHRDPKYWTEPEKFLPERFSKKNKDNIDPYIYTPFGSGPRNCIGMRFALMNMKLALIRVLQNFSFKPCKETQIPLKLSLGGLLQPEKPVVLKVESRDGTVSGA

CYP2D6 = CYP2D6 (Homo sapiens, UniProt P10635); test: CYP inhibition in human liver microsomes; settings: human, human liver microsomes, probe bufuralol
Chain of CYP2D6 (P10635 whole entry): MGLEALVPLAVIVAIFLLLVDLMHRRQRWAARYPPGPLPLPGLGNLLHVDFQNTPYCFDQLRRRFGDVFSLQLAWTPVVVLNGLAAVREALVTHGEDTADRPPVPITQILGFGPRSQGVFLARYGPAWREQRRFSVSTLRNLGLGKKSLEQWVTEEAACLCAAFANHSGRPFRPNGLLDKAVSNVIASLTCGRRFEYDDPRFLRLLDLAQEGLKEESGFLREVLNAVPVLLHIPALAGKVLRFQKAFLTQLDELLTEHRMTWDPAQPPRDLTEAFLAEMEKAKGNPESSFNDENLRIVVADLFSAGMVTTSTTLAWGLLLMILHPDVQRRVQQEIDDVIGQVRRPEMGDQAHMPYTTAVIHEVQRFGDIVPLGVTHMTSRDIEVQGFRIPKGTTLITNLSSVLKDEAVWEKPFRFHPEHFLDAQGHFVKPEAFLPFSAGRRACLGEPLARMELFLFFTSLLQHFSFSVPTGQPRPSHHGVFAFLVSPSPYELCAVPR

CYP1A2 [2] = target: T3, CYP1A2 (Homo sapiens, UniProt P05177); test: CYP inhibition in human liver microsomes; settings: human, human liver microsomes, probe phenacetin
T3 sequence (P05177 1-516): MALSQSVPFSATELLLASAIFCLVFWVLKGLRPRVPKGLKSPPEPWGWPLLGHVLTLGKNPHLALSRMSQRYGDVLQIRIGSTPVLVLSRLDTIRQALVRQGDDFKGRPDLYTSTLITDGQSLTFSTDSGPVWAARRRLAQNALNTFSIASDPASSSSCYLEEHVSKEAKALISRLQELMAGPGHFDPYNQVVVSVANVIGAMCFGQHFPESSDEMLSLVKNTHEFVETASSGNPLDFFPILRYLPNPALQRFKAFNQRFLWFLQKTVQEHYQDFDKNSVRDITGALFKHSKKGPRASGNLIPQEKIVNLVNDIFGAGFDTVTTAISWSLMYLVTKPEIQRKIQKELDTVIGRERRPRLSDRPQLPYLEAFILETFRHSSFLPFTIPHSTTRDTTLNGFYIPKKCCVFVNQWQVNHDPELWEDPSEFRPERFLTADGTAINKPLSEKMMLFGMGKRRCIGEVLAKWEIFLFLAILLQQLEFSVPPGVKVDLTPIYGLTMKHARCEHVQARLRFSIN

CYP2B6 [3] = test: CYP induction, in situ catalytic activity, human hepatocytes
Description: (§1) Rifampicin as a positive control and solvent (0.1% DMSO) vehicle control were also included. The acceptance criteria for CYP induction was ≥ 2-fold induction for significant CYP activity, while the acceptance criteria for CYP mRNA was ≥ 4-fold for significant CYP induction.

CYP2B6 [4] = test: CYP induction, mRNA, primary cultured human hepatocytes; settings: Fold Induction (CYP2B6 mRNA expression), hepatocyte Lot 399, 1000 µM
Description: as §1

CYP2B6 mRNA = test: as above; settings: Fold Induction (CYP2B6 mRNA expression)
Description: as §1

[5] = Phospholipidosis and steatosis, high content screening; assay type: cell-based; parameters: key to Cell count, Trend (↑↓) / Nuclear size, Trend (↑↓) / DNA structure, Trend (↑↓) / Phospholipidosis, Trend (↑↓) / Steatosis, Trend (↑↓): ↑: increasing trend of response; ↓: decreasing trend of response; settings: human, HepG2 cells
HepG2 cells = test: as above; assay type: cell-based; parameters: key to Cell count, Trend (↑↓) / Nuclear size, Trend (↑↓) / DNA structure, Trend (↑↓) / Phospholipidosis, Trend (↑↓) / Steatosis, Trend (↑↓): ↑: increasing trend of response; ↓: decreasing trend of response; settings: for Steatosis, MEC: (NS) = not statistically significant
human hepatocytes = test: MTT assay, hepatocyte viability; assay type: cell-based
Kir2.1 = target: T4, Kir2.1 (Homo sapiens, UniProt P63252); test: CiPA IonChannelProfiler Cardiac Panel, QPatch; assay type: cell-based; settings: mean of two sample results
T4 sequence (P63252 1-427): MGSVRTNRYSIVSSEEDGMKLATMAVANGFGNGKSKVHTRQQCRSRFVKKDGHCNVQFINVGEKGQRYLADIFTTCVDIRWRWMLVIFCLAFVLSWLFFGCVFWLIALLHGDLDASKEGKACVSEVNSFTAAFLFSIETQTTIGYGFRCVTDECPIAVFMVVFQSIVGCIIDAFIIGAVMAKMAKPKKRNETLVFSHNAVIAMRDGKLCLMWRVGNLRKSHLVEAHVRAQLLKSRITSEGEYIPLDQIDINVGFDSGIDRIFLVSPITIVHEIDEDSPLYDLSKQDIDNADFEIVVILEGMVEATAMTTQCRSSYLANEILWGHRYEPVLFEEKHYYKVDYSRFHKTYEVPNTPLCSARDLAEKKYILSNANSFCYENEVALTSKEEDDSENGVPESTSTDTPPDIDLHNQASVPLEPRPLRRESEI

CYP1A2 mRNA = test: CYP induction, mRNA, primary cultured human hepatocytes; assay type: in vitro ADME; settings: read-out: CYP1A2 mRNA Fold Induction (fold of vehicle control)
Description: as §1

CYP1A2 [6] = test: CYP induction, in situ catalytic activity, human hepatocytes; assay type: in vitro ADME
Description: as §1

[7] = # AC50 greater than the maximum surviving concentration, (NS) = not statistically significant, read-out: Steatosis, AC50
[8] = read-out: Phospholipidosis, AC50

## Nc1ccc(S(=O)(=O)Nc2ccnn2-c2ccccc2)cc1 [Sulfaphenazole]
CYP2B6 [1]
  activity at 20 min, 3 µM: 100 ± 5.8%
CYP2C9; microsomes
  activity at 20 min, 3 µM: 23.6 ± 3.3%
CYP2C19
  activity at 20 min, 3 µM: 102 ± 6.5%
CYP2C8
  activity at 20 min, 3 µM: 97.6 ± 19.2%
CYP3A4; CYP activity (% of Control) 3A4 (Midazolam)
  activity at 20 min, 3 µM: 98.7 ± 5.2%
CYP3A4; CYP activity (% of Control) 3A4 (Testosterone)
  activity at 20 min, 3 µM: 95.9 ± 4.3%
CYP2D6
  activity at 20 min, 3 µM: 94.8 ± 7.2%
CYP1A2 [2]
  activity at 20 min, 3 µM: 98.1 ± 10.8%

## CCC1(c2ccccc2)C(=O)NC(=O)NC1=O [Phenobarbital]
CYP2B6 [3]; hepatocyte Lot 336, 1000 µM
  Bupropion Hydroxylation: 3.6 pmol/min/106 cells
  Fold of Vehicle Control (CYP2B6 activity, bupropion hydroxylation): 4.0 fold
CYP2B6 [3]; hepatocyte Lot 348B, 1000 µM
  Fold of Vehicle Control (CYP2B6 activity, bupropion hydroxylation): 8.6 fold
CYP2B6 [3]; hepatocyte Lot 399, 1000 µM
  Fold of Vehicle Control (CYP2B6 activity, bupropion hydroxylation): 19 fold
CYP2B6 [4]
  fold induction at 48 h, 1000 µM: 11
CYP2B6 mRNA; hepatocyte Lot 336, 1000 µM
  fold induction at 48 h, 1000 µM: 11
CYP2B6 mRNA; hepatocyte Lot 348B, 1000 µM
  fold induction at 48 h, 1000 µM: 12

## CC/C(=C(\c1ccccc1)c1ccc(OCCN(C)C)cc1)c1ccccc1 [Tamoxifen]
[5]; [7]
  AC50: 16.9 µM
[5]; read-out: Cell count, AC50
  AC50: 0.442 µM
[5]; read-out: DNA structure, AC50
  AC50: 6.3 µM
[5]; read-out: Nuclear size, AC50
  AC50: 3.05 µM
[5]; [8]
  AC50: 0.764 µM
HepG2 cells
  Cell count, MEC: 0.360 µM
  Cell count, Trend (↑↓): ↑
  DNA structure, MEC: 2.57 µM
  DNA structure, Trend (↑↓): ↑
  Nuclear size, MEC: 0.672 µM
  Nuclear size, Trend (↑↓): ↓
  Phospholipidosis, MEC: 0.447 µM
  Steatosis, Trend (↑↓): ↑
  Steatosis, MEC: 4.38 µM
Human hepatocytes; 50 µM
  Hepatocyte Viability, MTT Assay Upfront (Mean): 4
Human hepatocytes; Lot 336, 50 µM
  Hepatocyte Viability, Concurrent MTT Assay (Mean): 2
Human hepatocytes; Lot 348B, 50 µM
  Hepatocyte Viability, Concurrent MTT Assay (Mean): 1
Human hepatocytes; Lot 399, 50 µM
  Hepatocyte Viability, Concurrent MTT Assay (Mean): 7

## CCc1cc(Cl)c(OC)c(N2CCN(C[C@H](O)CCNC(=O)c3cc4ccccc4[nH]3)CC2)c1 [(R)-VK4-116]
Kir2.1; 0.01 µM
  Mean % inhibition on hKir2.1 (End): 8.24%
  Mean % inhibition on hKir2.1 (Peak): 9.54%
Kir2.1; 0.1 µM
  Mean % inhibition on hKir2.1 (End): 12.22%
  Mean % inhibition on hKir2.1 (Peak): 14.42%
Kir2.1; 1 µM
  Mean % inhibition on hKir2.1 (End): 16.36%
  Mean % inhibition on hKir2.1 (Peak): 19.01%
Kir2.1; 10 µM
  Mean % inhibition on hKir2.1 (End): 18.23%
  Mean % inhibition on hKir2.1 (Peak): 21.58%
Kir2.1; 100 µM
  Mean % inhibition on hKir2.1 (End): 97.19%
  Mean % inhibition on hKir2.1 (Peak): 52.64%

## COc1ccc2[nH]c([S+]([O-])Cc3ncc(C)c(OC)c3C)nc2c1 (stereo not drawn) [Omeprazole, reference compound]
CYP1A2 mRNA; Lot 336, 50 µM
  fold induction at 48 h, 50 µM: 115
CYP1A2 mRNA; Lot 348B, 50 µM
  fold induction at 48 h, 50 µM: 361
CYP1A2 mRNA; Lot 399, 50 µM
  fold induction at 48 h, 50 µM: 232
CYP1A2 [6]; Lot 336, 50 µM
  CYP1A2 activity, Fold of Vehicle Control: 17 fold
CYP1A2 [6]; Lot 348B, 50 µM
  CYP1A2 activity, Fold of Vehicle Control: 44 fold
CYP1A2 [6]; Lot 399, 50 µM
  CYP1A2 activity, Fold of Vehicle Control: 23 fold
  Phenacetin-O- deethylation: 186 pmol/min/106 cells

## CC(=O)N1CCN(c2ccc(OCC3COC(Cn4ccnc4)(c4ccc(Cl)cc4Cl)O3)cc2)CC1 (stereo not drawn) [Ketoconazole]
CYP2B6 [1]
  activity at 20 min, 5 µM: 49.1 ± 0.7%
CYP2C9; human liver microsomes, probe diclofenac
  activity at 20 min, 5 µM: 65.8 ± 1.9%
CYP2C19
  activity at 20 min, 5 µM: 82.9 ± 2.8%
CYP2C8
  activity at 20 min, 5 µM: 45.7 ± 4.7%
CYP1A2 [2]
  activity at 20 min, 5 µM: 70.7 ± 2.2%

## CN[C@H]1CC[C@@H](c2ccc(Cl)c(Cl)c2)c2ccccc21 [Sertraline]
[5]; [7]
  AC50: > 3.13 µM
[5]; read-out: Cell count, AC50
  AC50: 2.48 µM
[5]; read-out: DNA structure, AC50
  AC50: 6.23 µM
[5]; read-out: Nuclear size, AC50
  AC50: > 3.13 µM
[5]; [8]
  AC50: 0.351 µM
HepG2 cells
  Cell count, MEC: 1.61 µM
  Cell count, Trend (↑↓): ↓
  DNA structure, MEC: 0.876 µM
  DNA structure, Trend (↑↓): ↑
  Phospholipidosis, MEC: <0.0977 µM
  Phospholipidosis, Trend (↑↓): ↑
  Steatosis, Trend (↑↓): ↑
  Steatosis, MEC: 0.822 (NS) μM

## [Ba+2].[Cl-].[Cl-] [Barium Chloride]
Kir2.1; 1 µM
  Mean % inhibition on hKir2.1 (End): 11.87%
  Mean % inhibition on hKir2.1 (Peak): 6.70%
Kir2.1; 3 µM
  Mean % inhibition on hKir2.1 (End): 30.43%
  Mean % inhibition on hKir2.1 (Peak): 11.92%
Kir2.1; 10 µM
  Mean % inhibition on hKir2.1 (End): 55.57%
  Mean % inhibition on hKir2.1 (Peak): 17.51%
Kir2.1; 30 µM
  Mean % inhibition on hKir2.1 (End): 85.21%
  Mean % inhibition on hKir2.1 (Peak): 27.21%
Kir2.1; 100 µM
  Mean % inhibition on hKir2.1 (End): 89.33%
  Mean % inhibition on hKir2.1 (Peak): 45.99%
